Where two headings read alike, the source gives them in different places. Residues, ends and D or L forms follow the SMILES beside them. *: point of attachment. Palmitoyl = CCCCCCCCCCCCCCCC(=O)*
Tests used:
[1] = test system: TRPV6 D580A; experiment: NFAT screen, TRPV6 D580A; format: cell-based, human; details: HEK293 cells; 5 μM cis-22a, 2 h, vs DMSO
Method: (§1) N-terminally TagRFP-labeled human TRPV6 (725 aa) was kindly provided by R. Bhardwaj and M. Hediger (University of Bern, Bern, Switzerland). This variant is translated from the first ATG codon and thus deviates from the non-ATG-initiated protein which is expressed in vivo (accession number NM_018646.6) by lacking 40 amino acids of the very N-terminus. For N-terminal labeling with EYFP, TRPV6 was cloned into pEYFP-C1 (Clontech) via EcoRI and SacII restriction sites. […]
(§2) After incubation, cover slips were carefully rinsed with phenol red-free DMEM supplemented with the compound and dosage corresponding to the previous incubation, which was then also present during imaging. […] Subcellular NFAT localization of TRPV6 expressing cells was again monitored on an Axiovert 135 inverted microscope (Zeiss, Oberkochen, Germany), as described in more detail before. […] Images were analyzed using Matlab2018a, differentiating between three cell populations based on the ratio of CFP emission intensity originating from the nucleus and the cytosol, similar to Schober et al. (2019).

[2] = test system: TRPV6 W583F; experiment: NFAT screen, TRPV6 W583F; format: cell-based, human; details: HEK293 cells; 5 μM cis-22a, 2 h, vs DMSO
Method: as §1, §2

[3] = test system: TRPV6 D580K; design: method as in PMID 33246965; details: HEK293 cells; 0.1 μM and 10 μM cis-22a; Figure 5B; ref [47]; cited from earlier work
[4] = target: T1, TRPV6 WT (Homo sapiens, UniProt Q9H1D0); experiment: Fura-2 Ca2+ imaging, TRPV6 WT; format: cell-based; details: 20 μM pal-PIP2 peptide; for inhibition at 20 µM: HEK293, read-out: mean percentage of inhibition (Fura-2 signal), HEK293 cells
T1 construct: expressed in transfected cells; host or cells: HEK293 cells, transient transfection
T1 sequence (Q9H1D0 41-765 limits assumed): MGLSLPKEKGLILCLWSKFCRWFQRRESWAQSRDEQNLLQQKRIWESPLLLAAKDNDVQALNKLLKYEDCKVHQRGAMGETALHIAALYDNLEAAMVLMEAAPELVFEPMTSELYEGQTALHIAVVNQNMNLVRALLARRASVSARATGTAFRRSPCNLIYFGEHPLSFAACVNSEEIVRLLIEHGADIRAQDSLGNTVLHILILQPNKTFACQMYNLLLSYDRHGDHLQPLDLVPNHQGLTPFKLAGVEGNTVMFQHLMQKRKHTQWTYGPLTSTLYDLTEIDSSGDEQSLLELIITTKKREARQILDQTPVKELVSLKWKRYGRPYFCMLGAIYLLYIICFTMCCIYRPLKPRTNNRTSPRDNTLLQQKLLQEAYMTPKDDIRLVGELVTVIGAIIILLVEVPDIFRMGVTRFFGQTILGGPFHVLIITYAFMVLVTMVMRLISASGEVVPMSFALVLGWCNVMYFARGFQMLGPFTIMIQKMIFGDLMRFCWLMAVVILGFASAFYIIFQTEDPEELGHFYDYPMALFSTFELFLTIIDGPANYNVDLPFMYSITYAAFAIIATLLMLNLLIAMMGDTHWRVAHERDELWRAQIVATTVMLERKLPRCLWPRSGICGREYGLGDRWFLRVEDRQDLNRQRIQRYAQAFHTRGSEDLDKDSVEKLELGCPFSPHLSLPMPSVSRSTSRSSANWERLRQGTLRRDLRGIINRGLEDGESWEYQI

Row | SMILES | change of nuclear NFAT localization [1] | change of nuclear NFAT localization [2] | response to cis-22a vs TRPV6 WT [3] | inhibition at 20 µM ([4]; applied after 0.5 μM cis-22a, Figure 6D, not significantly different from reverse order) [%] | inhibition at 20 µM ([4]; applied first (before cis-22a), Figure 6C) [%] | decrease in cytosolic Ca2+ level ([4]; HEK293 cells, 2 mM Ca2+, Figure 1B, significantly stronger than control peptide (p < 0.05)) | reduction of intracellular Ca2+ level ([4]; HEK293 cells, 2 mM Ca2+, Figure 2A, comparison with G488R)
1 | Cc1cccc(C2CCC(N3CCN(c4cccnc4)CC3)CC2)c1.O=C(O)C(F)(F)F (stereo not drawn) [cis-22a] | not significantly changed | not significantly changed | significantly reduced response |  |  |  | 
2 | CCCCCCCCCCCCCCCC(=O)N[C@@H](Cc1c[nH]cn1)C(=O)N[C@@H](CCCNC(=N)N)C(=O)N[C@@H](CCC(N)=O)C(=O)N[C@@H](CCCCN)C(=O)N[C@@H](Cc1c[nH]cn1)C(=O)N[C@@H](Cc1ccccc1)C(=O)N[C@@H](CCC(=O)O)C(=O)N[C@@H](CCCCN)C(=O)N[C@@H](CCCNC(=N)N)C(=O)N[C@@H](CCCNC(=N)N)C(N)=O [pal-PIP2 peptide] (Palmitoyl-HRQKHFEKRR-NH2) |  |  |  | 9.18 | 10.8 | approximately 11% | about 13%

From publication PMC10779433, “Bidirectional Allosteric Coupling between PIP2 Binding and the Pore of the Oncochannel TRPV6” (International Journal of Molecular Sciences, 2024)
